Reference: publication PMC12117998, “First Steps toward the Design of Peptides that Influence the Intracellular Palmitoylation Machinery” (Chembiochem, 2025)
No end group written: not given here.

How the values were obtained:
HeLa cells [1] = experiment: Cell viability assay (resazurin); type: cell-based; settings: 24 h; for cytotoxicity (cell viability): CF‐labeled peptides, n = 3 (Figure 3A); for concentration up to which peptide is not toxic (cell viability): unlabeled peptides in serum-free medium, untreated control = 100%, n = 3 (Figure 2A)
Experimental: (§1) HeLa (13,000), MDA‐MB‐231 (26,000), HFF‐1 (16,000) cells, mEGFP‐HRas (18,000), and SW480 and SW620 (15,000) were seeded into a 96‐well plate. Cells were treated with suitable peptide concentrations diluted in the corresponding serum‐free culture medium. After 24 h incubation under standard growth conditions, the cells were washed once with PBS. The positive control was treated for 10 min with 70% EtOH. To test the viability, cells were treated with a resazurin solution (In Vitro Toxicology Assay Kit, resazurin based, Sigma) and incubated for a further 1–2 h. The product resorufin was measured at 595 nm (λex = 550 nm) on an infinite M200 plate reader (Tecan) and normalized to the untreated negative control cells.

MDA‐MB‐231 [2] = experiment: Cell viability assay (resazurin); type: cell-based; settings: MDA‐MB‐231, 24 h, CF‐labeled peptides, n = 3 (Figure 3B)
Experimental: as §1

HFF‐1 cells [3] = experiment: Cell viability assay (resazurin); type: cell-based, human; settings: HFF‐1, 24 h, CF‐labeled peptides, n = 3 (Figure 3C)
Experimental: as §1

HeLa cells [4] = experiment: Cellular uptake by flow cytometry; type: cell-based; settings: 30 min, serum-free medium, 37 °C, flow cytometry
Experimental: (§2) HeLa (90,000), MDA‐MB‐231 (120,000), and HFF‐1 (125,000) cells were seeded into a 24‐well plate. Cells were treated with the desired concentration of CF‐labeled peptide diluted in the appropriate serum‐free medium for 30 min at 37 °C and 5% CO2. Afterward, cells were washed once with PBS, detached from the plate using indicator‐free trypsin/EDTA and resuspended in indicator‐free culture medium. The cell mixture was measured on the Guava easyCyte flow cytometer (Merck) using the GRN‐B (520/30) detector.
CMA was synthesized and kindly provided by Azizi et al.^[ [33] ^] Cells were either treated with 20 μM CMA diluted in serum‐free media or 0.1% DMSO diluted in serum‐free media for 6 h at 37 °C with 5% CO2. Next, cells were washed once with serum‐free medium and 5 μM CF‐labeled peptides diluted in serum‐free medium were incubated for 30 min. Control cells were only treated with dimethylsulfoxide (DMSO) or 20 μM CMA.
For the preincubation assay, cells were either treated with 5 μM DC‐2 diluted in serum‐free medium or only serum‐free medium for 30 min at 37 °C and 5% CO2. Afterward, cells were washed once with serum‐free medium and treated with 5 μM CF‐labeled DC‐2 for 30 min at 37 °C and 5% CO2.
To block cell surface thiols, cells were incubated with either serum‐free medium or 1.2 mM 5,5′‐dithiobis‐(2‐nitrobenzoic acid) (Ellman's reagent, DTNB) diluted in serum‐free medium for 5 min. Next, untreated cells were treated with 1 μM of CF‐labeled DC‐2 or DC‐2dis diluted in serum‐free medium and DTNB‐pretreated cells with 1 μM of CF‐labeled DC‐2 or DC‐2dis and 1.2 mM DTNB in serum‐free medium for 30 min at 37 °C and 5% CO2 as described by Aubry et al.^[ [47] ^]

human 6His‐ZDHHC7 = biological target: T1, human 6His‐ZDHHC7 (Homo sapiens, UniProt Q9NXF8); experiment: In vitro palmitoylation assay (LC‐MS); type: biochemical; settings: 50 μM CF‐labeled peptide, 37 °C, LC‐MS (Figure 4); for palmitoylation in presence of ZDHHC7: 100 nM ZDHHC7, 100 μM palmitoyl‐CoA, pH 7.0, 2 h; for palmitoylation in absence of ZDHHC7 (auto‐palmitoylation): 100 μM palmitoyl‐CoA, no ZDHHC7, pH 7.0, 2 h
T1 construct: 6His; purchased Proteintech
T1 sequence (Q9NXF8 1-308): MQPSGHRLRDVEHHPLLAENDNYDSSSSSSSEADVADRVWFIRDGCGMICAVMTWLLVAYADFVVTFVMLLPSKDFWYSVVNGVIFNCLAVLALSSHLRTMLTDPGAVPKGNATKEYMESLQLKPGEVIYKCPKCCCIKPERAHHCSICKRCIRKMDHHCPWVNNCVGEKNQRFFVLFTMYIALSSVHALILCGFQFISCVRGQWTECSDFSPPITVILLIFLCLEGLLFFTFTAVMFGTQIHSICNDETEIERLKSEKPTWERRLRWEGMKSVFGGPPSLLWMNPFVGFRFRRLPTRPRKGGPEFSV
Experimental: The 50 μM CF‐labeled peptides were incubated with 100 nM human 6His‐ZDHHC7 (Proteintech) and 100 μM palmitoyl‐CoA (Santa Cruz Biotechnology) in reaction buffer (50 mM HEPES, 150 mM NaCl, 1 mM EDTA, 1 mM (tris(2‐carboxyethyl)phosphine) (TCEP), 0.3 mM DDM, pH 7.0) for 2 h at 37 °C. Control reactions without ZDHHC7 or palm‐CoA were incubated with the appropriate volume of reaction buffer. Afterward, the reaction was centrifuged for 5 min at 13000 rpm. The precipitate was dissolved in DMSO/ACN (3:2, v/v). To enrich the peptide from the supernatant, C8 ZipTips were used. All samples were analyzed on the LC MS‐8060 triple quadrupole ESI‐MS (Shimadzu). The fluorescence intensity (λex = 493 nm, λem = 517 nm) of the samples was measured on an EC 160/2 NUCLEODUR 300‐5 C18 ec column using linear gradients from 20% to 70 % ACN in ddH2O + 0.1% FA over 7 min.

MCF‐10 A breast spheroid = experiment: Confocal time‐lapse imaging of spheroids; type: cell-based, human; settings: 10‐day‐old MCF‐10 A spheroids, 10 μM CF‐labeled peptide, imaged every 45 s for 20 min, n ≥ 2 (Figure 7)
Experimental: Spheroids from single MCF10‐A cells were generated for 10 days as described in ref. [66]. For further analyses, spheroids were isolated from EHS matrix through incubation in 2 mL ice‐cold cell recovery solution (BD Biosciences) for 30 min (4 °C). Next, spheroids were washed with fresh EGF‐free medium and individually picked under a stereo microscope for seeding onto 35 mm cell culture dishes with microscopic glass bottoms (Cover Slip, 24 × 24 mm, #1.5 HP, Menzel‐Gläser). Spheroids adhered to glass substrates for 15 min (RT) and were subsequently covered with 0.9 mL fresh EGF‐free growth medium.
Live‐cell imaging was performed at 37 °C and 5% CO2 (cell incubator XL, Zeiss, Germany) with an inverse confocal laser scanning microscope (LSM880 with Airyscan detector) that used a 40x LD C‐Apochromat water immersion objective (NA 1.1, Zeiss). Before addition of peptides, control images were taken. Subsequently, peptide was added to a final concentration of 10 μM and spheroids immediately imaged every 45 s for 20 min. The observed plane was at the equatorial plane of a spheroid, where the diameter was largest. Images were taken with Fast Airyscan and subsequent processing using the ZEN 2.3 black software (Zeiss). Z‐stacks were taken right after the time series in 1 μm steps with the same microscopic settings.

MDA‐MB‐231 [5] = experiment: Cellular uptake by flow cytometry; type: cell-based; settings: MDA‐MB‐231, 30 min, 5 μM CF‐labeled peptides, serum-free medium, 37 °C, n ≥ 3 (Figure 3E)
Experimental: as §2

HeLa cells [6] = experiment: Live‐cell fluorescence imaging of peptide uptake; type: cell-based; settings: 30 min, 5 μM CF‐labeled peptides, confocal laser scanning microscopy (Figure 3G)
Experimental: HeLa (40,000), MDA‐MB‐231 (30,000), or HFF1 (55,000) cells were seeded into an 8‐well ibidi. Cells were treated for 30 min with 5 μM of CF‐labeled peptide diluted in the appropriate serum‐free media. The cell nuclei were stained with the Hoechst 33342 nuclear dye for the last 10 min of the total incubation time. Afterward, cells were washed three to four times using serum‐free medium and finally, medium containing FBS was added for the microscopy. Live fluorescence microscopy analyses were performed on the LSM 980 with Airyscan 2 Inverse Confocal Laser Scanning Microscope (Carl Zeiss) on a 63X Plan‐Apochromat oil objective (NA 1.4, Zeiss) at 37 °C and 5% CO2 or on the BZ‐X810 (Keyence) using a 60X Plan‐Apochromat oil objective (NA 1.4, Keyence). Images were cropped and processed using Fiji.
Hela cells (15,000) were seeded into a 96-well plate. Cells were treated with suitable peptide concentrations diluted in the corresponding serum-free culture medium. After 1 h peptide incubation under standard growth conditions, the positive control was either directly treated with lysis solution or the supernatant was exchanged for serum-free culture medium and the plate was incubated for further 5 h under growing conditions. The CytoTox-ONE™ Reagent was added and incubated at RT for 10 minutes. Finally, the Stop Solution was added and the fluorescence was measured at 595 nm (λex = 550 nm) on an infinite M200 plate reader (Tecan) and normalized to the positive control cells.
Red blood cells (RBCs) were washed three times in PBS by centrifug ing at 4 °C and 3,000 x g for 5 min and diluted to 5% in PBS. The desired peptide concentrations diluted in PBS were added into a 96-well plate. Next, 5% RBCs in PBS were added into the wells and incubated for 24 h at 37 °C and 5% CO2. As a positive control, RBCs were mixed with 10% Triton X-100 in PBS. […] Lastly, the absorption (λ=560 nm) was measured on the infinite M200 plate reader (Tecan). For the evaluation, the measured absorption of the Triton-X-100 treatment was set to a hemolysis rate […]

HFF‐1 cells [7] = experiment: Cellular uptake by flow cytometry; type: cell-based, human; settings: HFF‐1, 30 min, 5 μM CF‐labeled peptides, serum-free medium, 37 °C, n ≥ 3 (Figure 3F)
Experimental: as §2

[8] = 5 μM CF‐labeled peptides, n ≥ 3 (Figure 3D, 5C)
[9] = 10 μM CF‐labeled peptides, n = 3 (Figure 2B)

Substance	cytotoxicity (cell viability) (HeLa cells [1])	concentration up to which peptide is not toxic (cell viability) (HeLa cells [1])	cytotoxicity (cell viability) (MDA‐MB‐231 [2])	cytotoxicity (cell viability) (HFF‐1 cells [3])	cellular uptake (in words) (HeLa cells [4]; [8])	cellular uptake (in words) (HeLa cells [4]; [9])	palmitoylation in presence of ZDHHC7 (human 6His‐ZDHHC7)	palmitoylation in absence of ZDHHC7 (auto‐palmitoylation) (human 6His‐ZDHHC7)	infiltration of basement membrane (BM)‐covered spheroids (MCF‐10 A breast spheroid)	cellular uptake (in words) (MDA‐MB‐231 [5])	intracellular uptake pattern (HeLa cells [6])	cellular uptake (in words) (HFF‐1 cells [7])
GLRKRLRKFRNK-NH2 [sC18*, cell‐penetrating peptide (CPP) sC18*, origin CAP18, control peptide, reference compound]	not toxic	> 100 µM	not toxic	not toxic								
GLRKRLRKFRNKEFDHHCPW-NH2 [DC‐4, CPP sC18* fused to the DHHC motif derived from ZDHHC5]					overall weaker uptake	internalized to less extent	only a minor peak of palmitoylated DC‐4	no auto‐palmitoylation				
GLRKRLRKFRNKKMDHHAPW-NH2 [DA‐1, control peptide in which the cysteine of the DHHC motif of DC‐2 was exchanged by an alanine]	not toxic	> 100 µM	not toxic	not toxic					did not further enter cells of the spheroid			
GLRKRLRKFRNKRMDHHCPW-NH2 [DC‐11, CPP sC18* fused to the DHHC motif derived from ZDHHC21]					internalized to a higher extent compared to DC‐4	highest uptake	palmitoylated	auto‐palmitoylation		internalized to a higher extent compared to DC‐4	diffuse cytosolic pattern	internalized to a higher extent compared to DC‐4
